Results as given in patent publication EP0357495A2, “3'Azido-3'-deoxythymidine (AZT) derivatives active against the AIDS virus” (IRE-CELLTARG S.A., priority 1988, dated 1990).

Assays:
[1] = test system: virus HIV-1 (souche HTLV-IIIB); assay: viral antigen expression in HIV-infected HUT-78 cells (indirect immunofluorescence, laser cytofluorescence); format: cell-based
Text: Les produits (AZT et AZT-5′ hémisuccinyl) à différentes concentrations ont été mis en présence de cellules HUT-78 infectées par le virus HIV-1 (souche HTLV-IIIB) à une multiplicité d'infection de 0.4. Tous les quatre jours, 3/4 du milieu ont été remplacés par du milieu frais. Après douze jours, l'expression des antigènes viraux a été mesurée par immunofluorescence indirecte à l'aide d'un sérum anti-HIV-I positif, et par cytofluorescence laser, tel que décrit par Pauwels et al. J. Virol. Meth. 16, 171-185 (1987).
Des résultats sont exprimés dans le tableau 3 en ED₅₀ et en pourcentage d'effet protecteur selon la formule : [formula] TABLEAU 3

[2] = test system: virus HIV-1 (souche HTLV-IIIB); assay: anti-HIV activity in HIV-infected MT4 cells (MTT method); format: cell-based
Procedure: (§1) Les produits (AZT, AZT-5′ hémisuccinyl et AZT 5′-leucyl) à différentes concentrations ont été mis en présence de cellules MT4 (4 X 10⁴ cellules par puits de microtray) infectées ou non avec 100 CCID₅₀ de virus HIV-1 (souche HTLV-IIIB). La CCID₅₀ représente la quantité de virus à rajouter pour obtenir une infection de 50 % des cellules (dose infectieuse de cellules en culture 50).
(§2) Après cinq jours d'incubation à 37°C, le nombre de cellules vivantes a été déterminé par la méthode au MTT, basée sur la réduction par les cellules vivantes du 3′-(4, 5-diméthylthiazol-2-yl)-2,5-diphényltétrazoliumbromide, jaune, en formazan, bleu. L'activité antivirale et la cytotoxicité sont exprimées sous forme de ED₅₀ et de CD₅₀. La CD₅₀ représente la dose qui tue 50 % des cellules non infectées et la ED₅₀ représente la dose qui protège 50 % des cellules de l'infection virale.
(§3) La même expérience que celle décrite ci-avant (exemple 9.1)) a été réalisée, mais en présence de thymidine 250 µM et de 2′déoxycytidine 500 µM. En effet l'AZT entre en compétition avec la thymidine au niveau des enzymes de phosphorylation qui vont le transformer en AZT triphosphate (AZT TP) qui est la forme active du produit. Un excès de thymidine réduit donc très fortement l'activité de l'AZT, ce qui se traduit par une ED₅₀ plus élevée. Par conséquent, si le dérivé de l'AZT doit son activité à la libération d'AZT qui à son tour est phosphorylé en AZT TP, un excès de thymidine aura également pour effet d'élever la ED₅₀ du dérivé. La thymidine étant cytotoxique à la concentration utilisée, il est nécessaire de rajouter de la 2′déoxycytidine pour empêcher cette toxicité.
(§4) Les protocoles expérimentaux sont ceux décrits à l'exemple 9 3.1) et 9 3).

[3] = test system: virus MSV Moloney sarcoma virus; assay: in vivo activity in MSV-infected NMRI mice (survival, tumour appearance); design: species or system souris NMRI
Procedure: L'AZT et ses dérivés selon l'invention ont été testés in vivo chez la souris NMRI (souriceaux de 2 jours) infectée par le virus MSV Moloney sarcoma virus). La drogue est adminitrée i.p. pendant 5 jours dans un volume de 25 µl/g de poids corporel. Le virus est inoculé dans la cuisse gauche de l'animal deux heures après la première administration de drogue. Les animaux sont contrôlés tous les jours selon trois critères : survie, apparition de la tumeur et poids (toxicité) pendant 50 jours. Les résultats sont repris au tableau 7 et dans les figures 8 à 11. [formula]
On entend par temps médian de survie le temps où la moitié des souris sont encore vivantes. [formula] Tableau 7

cellules MT4 = assay: cytotoxicity on non-infected MT4 cells (MTT method); format: cell-based
Procedure: as §1, §2
as §3, with “En” for “La même expérience que celle décrite ci-avant (exemple 9.1)) a été réalisée, mais en présence de thymidine 250 µM et de 2′déoxycytidine 500 µM. En”
as §4

[4] = test system: cellules de la moëlle osseuse; assay: toxicity on bone marrow cells (colony count, day 7); format: cell-based; details: bone marrow cells of a healthy donor, semi-solid medium with GMCSF, colonies at day 7
Text: Des cellules ont été isolées à partir d'un prélèvement de moëlle osseuse chez un donneur sain. Elles ont été mises en culture en milieu semi-solide (agar) additionné de Granulocyte-Macrophage-Colony Stimulating Factor (GMCSF) en présence d'AZT et d'AZT 5′hémisuccinyl à différentes concentrations. Le nombre de cellules ayant donné naissance à une colonie a été déterminé par comptage de colonies au jour 7.
La toxicité du dérivé est de l'ordre de 10 fois plus faible que celle de l'AZT.

[5] = tableau 4, MT-4, with thymidine (250µM) + 2′déoxy-cytidine (500 µM)
[6] = tableau 4, MT-4, without thymidine / 2′déoxycytidine
[7] = AZT-5′ hémisuccinyl 6.8 mg/kg/jour i.p. 5 days
[8] = AZT-5′ hémisuccinyl 34 mg/kg/jour i.p. 5 days
[9] = AZT-5′ hémisuccinyl 170 mg/kg/jour i.p. 5 days

Structure (SMILES): Cc1cn([C@H]2C[C@H](N=[N+]=[N-])[C@@H](COC(=O)CCC(=O)O)O2)c(=O)[nH]c1=O [AZT 5′hémisuccinyl, 5′-hémisuccinyl-3′-azido-3′-déoxythymidine]
- Pourcentage d'effet protecteur ([1]; HUT-78, day 12, concentration 0.022 µM): -23%
- Pourcentage d'effet protecteur ([1]; HUT-78, day 12, concentration 0.11 µM): 48%
- Pourcentage d'effet protecteur ([1]; HUT-78, day 12, concentration 0.54 µM): 21%
- Pourcentage d'effet protecteur ([1]; HUT-78, day 12, concentration 2.71 µM): 72%
- ED₅₀ ([1]; HUT-78 cells, multiplicity of infection 0.4, day 12): ED₅₀ AZT-5′hémisuccinyl = 1,77 µM
- activité (compared with AZT, in words) ([2]; comparison with AZT): comparable à celle de l'AZT
- indice de sélectivité ([2]; de l'ordre de): ~28 000
- ED₅₀ ([2]; tableau 2, MT4 cells infected with 100 CCID₅₀ HIV-1, 5 days at 37°C, dose that protects 50 % of cells): .0069 µM
- SI ([2]; tableau 2, indice de sélectivité = CD₅₀ sur ED₅₀, MT4 cells): 28543
- SI dérivé/SI AZT ([2]; tableau 2, ratio within the same experiment, MT4 cells): 4.7
- ED₅₀ [2, 5]: 6,8399 µM
- SI [2, 5]: 53
- ED₅₀ [2, 6]: 0,0523 µM
- SI [2, 6]: 5633
- % ILS [3, 7]: 20.2%
- % ITL [3, 7]: 52.4%
- Temps moyen d'apparition de la tumeur [3, 7]: 7.3 jours
- Temps moyen de survie [3, 7]: 11.5 jours
- Temps médian d'apparition de la tumeur [3, 7]: 6.8 jours
- Temps médian de survie [3, 7]: 11.0 jours
- % ILS [3, 8]: >446%
- % ITL [3, 8]: 145%
- Temps moyen d'apparition de la tumeur [3, 8]: >25.5 jours
- Temps moyen de survie [3, 8]: >41 jours
- Temps médian d'apparition de la tumeur [3, 8]: 11 jours
- Temps médian de survie [3, 8]: >50 jours
- % ILS [3, 9]: 42.1%
- % ITL [3, 9]: 257%
- Temps moyen d'apparition de la tumeur [3, 9]: >23 jours
- Temps moyen de survie [3, 9]: >22.7 jours
- Temps médian d'apparition de la tumeur [3, 9]: 16 jours
- Temps médian de survie [3, 9]: 13 jours
- toxicité (compared with AZT, in words) (cellules MT4; comparison with AZT): considérablement inférieure
- CD₅₀ (cellules MT4; tableau 2, non-infected MT4 cells, 5 days at 37°C, dose that kills 50 % of cells): 196 µM
- CD₅₀ (cellules MT4; [5]): 362 µM
- CD₅₀ (cellules MT4; [6]): 295 µM
- toxicité plus faible que celle de l'AZT [4]: ~10 fois
